# Measured values taken from patent publication US6395745B1, “Alkaloid halide salts of swainsonine and methods of use” (priority 1997, dated 2002).
# Structures can show the parent of a compound that is named as a salt.
# Key:
# [1] = Accelerated stability of stressed solid samples, percentage remaining by HPLC; format: physicochemical; conditions: for percentage remaining, condition (e): 40° C. with 75% relative humidity for seven days; for percentage remaining, condition (d): 70° C. with low humidity for seven days; for percentage remaining, condition (c): 105° C. under nitrogen for seven days (*=average of two samples); for percentage remaining, condition (b): 105° C. with atmospheric oxygen for seven days (*=average of two samples); for percentage remaining, condition (a): UV light for 7 days
# Source text: Samples of swainsonine free base synthesized using synthetic routes developed by Dr. David Dime (Toronto Research Chemicals, Toronto, Ontario) and Dr. William Pearson (University of Michigan, Ann Arbor, Mich.), were recrystallized to obtain either the hydrochloride salt, the hydrobromide salt or the free base of swainsonine. Samples were weighed and exposed to the conditions described below.
# To model long-term stability or shelf life, various conditions were used to accelerate the decomposition process. Samples of crystalline prism swainsonine hydrochloride salt and swainsonine free base (a white, fluffy powder obtained from swainsonine hydrochloride were recrystallized from chloroform-methanol-diethyl ether) were weighed and exposed to conditions described below (stressed samples). Unstressed samples were prepared at 1 mg/ml concentration and chromatographed in sextuplicate on each run. After the indicated time interval each stressed sample was diluted with mobile phase at the same concentration as the unstressed sample. The percentage remaining swainsonine hydrochloride or swainsonine free base was calculated based on the percentage of either the hydrochloride or the free base in the unstressed sample.
# The conditions included (a) UV light for 7 days; (b) 105° C. with atmospheric oxygen for seven days (*=average of two samples); (c) 105° C. under nitrogen for seven days (*=average of two samples); (d) 70° C. with low humidity for seven days; and (e) 40° C. with 75% relative humidity for seven days. Other tests include (f) UV for 24 hours; (g) 100° C. aqueous solution for two hours; (h) aqueous acidic treatment for 24 hours; (i) aqueous alkali treatment for 4 hours; and (j) (aqueous) 3% hydrogen peroxide for 4 hours. […] The physical properties of swainsonine hydrochloride compared to the free base and swainsonine hydrobromide, and swainsonine hydrofluoride are shown in Table 5.
# [2] = mouse, in vivo; cited from earlier work
# [3] = test system: granulocyte-macrophage progenitor cells (CFU-GM); experiment: Murine bone marrow progenitor cell assay in methylcellulose, CFU-GM; format: cell-based, C57BL/6 mouse; conditions: FIG. 11
# Description: (§1) The healthy and GD0039 treated mice were euthanized by CO2 asphyxiation. Bone marrow (BM) cell suspensions were prepared under sterile conditions by flushing both femurs and tibiae with IMDM/FBS using a 26 gauge needle. Single cell suspensions were made up to 10.0 ml IMDM/FBS. The concentration of nucleated cells in each suspension was determined by triplicate counts on a hemocytometer. A portion of the cells was further diluted in media to the appropriate concentration before plating for the progenitor assay.
# Colony-forming units (CFUs) were estimated by the methylcellulose method. One milliliter suspensions, containing 2×10^5 nucleated BM cells, in 0.1 ml of IMDM and 0.9 ml MethoCult (M3330), were plated in triplicate in 35 mm tissue culture dishes. Swainsonine hydrochloride or swainsonine were added to certain plates, in 0.1 ml of IMDM at concentrations of 30 μg/ml and 3 μg/ml, which gave final concentrations of […]. The MethoCult M3330 contains 30% FBS and 10 μg/ml erythropoietin and is designed for the growth of early erythroid progenitor cells (CFU-E), which were scored after 3 days of incubation at 37° C. in a humidified atmosphere containing 5% CO2. […] Colonies containing more than 20 cells were scored using an inverted microscope with brightfield optics and 40× or 100× magnification. […]
# [4] = test system: murine tumor cells; conditions: organ-colonization and spontaneous metastasis assays; cited from earlier work
# [5] = test system: LAK cell; conditions: cited from earlier work
# [6] = Solubility in distilled water at room temperature; format: physicochemical; conditions: distilled water, water
# Description: The melting point of the clear swainsonine hydrochloride crystal (prism) was 190-191° C. The solubility of swainsonine hydrochloride in distilled water at room temperature was about 3 g/ml, in contrast to the solubility of swainsonine free base, which is about 0.8 g/ml (see Table 5).
# [7] = test system: early erythroid progenitor cells (CFU-E); experiment: Murine bone marrow progenitor cell assay in methylcellulose, CFU-E; format: cell-based, C57BL/6 mice
# Description: Pathogen-free C57BL/6 female mice, 8-9 weeks old, obtained from Jackson Laboratories were used. The room environment and photoperiod were controlled: 24° C.; humidity, 50±20%; 12 hr light and 12 hr dark. Mice were housed one per cage with ad libitum accesses to standard pelleted commercial laboratory diet and to sterile (autoclaved) tap water.
# Swainsonine hydrochloride was manufactured by Seres Laboratories, Calif. FBS and methylcellulose (MethoCult M3330) were purchased from Stem Cell Technologies, Inc. (Vancouver. BC). Iscove's modified Dulbecco's medium was prepared using powdered media from Gibco BRL, deionized water and filter sterilization. For the handling of cells, the media was supplemented with 2% FBS and 50 μM β-mercaptoethanol (referred to as IMDM/FBS).
# as §1
# Colony-forming units (CFUs) were estimated by the methylcellulose method. One milliliter suspensions, containing 2×10^5 nucleated BM cells, in 0.1 ml of IMDM and 0.9 ml MethoCult (M3330), were plated in triplicate in 35 mm tissue culture dishes. […] The MethoCult M3330 contains 30% FBS and 10 μg/ml erythropoietin and is designed for the growth of early erythroid progenitor cells (CFU-E), which were scored after 3 days of incubation at 37° C. in a humidified atmosphere containing 5% CO2. […] Colonies containing more than 20 cells were scored using an inverted microscope with brightfield optics and 40× or 100× magnification.
# [8] = mouse, in vivo; cited from earlier work; remark: listed apart in the source
# [9] = test system: tumor cell invasion; conditions: in vitro; cited from earlier work
# [10] = test system: HT29m colon carcinoma; conditions: orally or by mini-osmotic pumps; cited from earlier work
# [11] = test system: human MeWo melanoma; conditions: orally or by mini-osmotic pumps; cited from earlier work
# [12] = test system: NK cell; conditions: cited from earlier work
# [13] = test system: splenic and bone marrow (BM) cell; conditions: cited from earlier work
smiles,measurement,setting,value
"O[C@H]1[C@H]2[C@H](O)CCCN2C[C@H]1O [swainsonine hydrobromide, Swainsonine hydrobromide salt]","percentage remaining, condition (e)",[1]; hydrobromide salt,91.4%
same,"percentage remaining, condition (d)",[1]; hydrobromide salt,95.5%
same,"percentage remaining, condition (c)",[1]; hydrobromide salt,92.1%
same,"percentage remaining, condition (b)",[1]; hydrobromide salt,88.3%
same,"percentage remaining, condition (a)",[1]; hydrobromide salt,71.1%
O[C@H]1[C@H]2[C@H](O)CCCN2C[C@H]1O [swainsonine],lethal doses of irradiation,[2],protect
same,effect on granulocyte-macrophage progenitor cells in vitro,[3],stimulate
same,metastatic potential of treated murine tumor cells,[4],less metastatic
same,LAK cell activity,[5],increase
same,solubility,[6]; Table 5,800 mg/mL
same,solubility,[6]; room temperature,~800 mg/mL
same,increase in the number of early CFU-E,[7]; 0.03 μg/ml to 10 μg/ml in vitro,~3 fold
same,"number of early CFU-E, counted on day 3",[7]; added to methylcellulose in vitro,significantly increased
same,mean CFU-E of triplicate counts ± SD from 2 × 10^5 nucleated BM cells,"[7]; mouse 1 (control), 0.3 μg/ml in vitro, in vitro control 54 ± 12",108 ± 21
same,mean CFU-E of triplicate counts ± SD from 2 × 10^5 nucleated BM cells,"[7]; mouse 1 (control), 3 μg/ml in vitro, in vitro control 54 ± 12",101 ± 12
same,mean CFU-E of triplicate counts ± SD from 2 × 10^5 nucleated BM cells,"[7]; mouse 2 (GD0039 treated in vivo, 20 μg/day for four days), 0.3 μg/ml in vitro",71 ± 15
same,mean CFU-E of triplicate counts ± SD from 2 × 10^5 nucleated BM cells,"[7]; mouse 2 (GD0039 treated in vivo, 20 μg/day for four days), 3 μg/ml in vitro",103 ± 1
same,lethality of various chemotherapeutic agents,[8],protect against the lethality
same,tumor cell invasion through extracellular matrix,[9],block tumor cell invasion
same,"percentage remaining, condition (e)",[1]; listed as SW,102.5%
same,"percentage remaining, condition (d)",[1]; listed as SW,98.5%
same,"percentage remaining, condition (c)",[1]; listed as SW,9.7%*
same,"percentage remaining, condition (b)",[1]; listed as SW,20.0%*
same,"percentage remaining, condition (a)",[1]; listed as SW,99.3%
same,growth rate of tumor xenografts,[10],inhibited the growth rate
same,growth rate of tumor xenografts,[11],inhibited the growth rate
same,NK cell activity,[12],increase
same,splenic and bone marrow (BM) cell proliferation,[13],increase
